Literature values, collected in patent US20020028792A1, “Combinations of bisphosphonates, estrogens and estrogenic agents” (American Home Products Corporation, priority 2000, published 2002).

Details: Paget's disease of the bone; 30-mg tablets

O=P(O)(O)C(O)(Cc1cccnc1)P(=O)(O)O [Risedronate]
effectiveness in clinical trials: effective
